# pIC50: −log10 of the molar value. The source made the active and inactive calls. No cut-off for these calls is given here.
# How the values were obtained:
# [1] = tested on: RS4-11; test: Induction of apoptosis in human RS4-11 cells assessed as early apoptotic cells at 10 nM measured after 72 hrs by FITC-annexin-V/PI analysis (reference value: 5.36%); type: functional
# [2] = tested on: RS4-11; test: Induction of apoptosis in human RS4-11 cells assessed as early apoptotic cells at 1 nM measured after 72 hrs by FITC-annexin-V/PI analysis (reference value: 5.36%); type: functional
# [3] = tested on: RS4-11; test: Induction of apoptosis in human RS4-11 cells assessed as late apoptotic cells at 10 nM measured after 72 hrs by FITC-annexin-V/PI analysis (reference value: 3.23%); type: functional
# [4] = target: T1, von Hippel-Lindau disease tumor suppressor/Ubiquitin carboxyl-terminal hydrolase 7 (Homo sapiens, UniProt Q93009+P40337); test: PROTACT activity at USP7/VHL in human REH cells assessed as protein degradation at 10 to 100 nM measured after 12 hrs by Western blot analysis; type: cell-based; details: dose 10-100 nM
# Target sequence in this assay (P40337 whole entry, looked up): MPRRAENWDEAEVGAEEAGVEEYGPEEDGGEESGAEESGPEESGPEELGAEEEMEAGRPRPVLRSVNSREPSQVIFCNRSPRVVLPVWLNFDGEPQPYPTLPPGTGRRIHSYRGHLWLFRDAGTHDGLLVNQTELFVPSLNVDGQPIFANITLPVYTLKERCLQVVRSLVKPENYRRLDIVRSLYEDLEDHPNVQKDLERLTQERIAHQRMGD
# Target sequence in this assay (Q93009 whole entry, looked up): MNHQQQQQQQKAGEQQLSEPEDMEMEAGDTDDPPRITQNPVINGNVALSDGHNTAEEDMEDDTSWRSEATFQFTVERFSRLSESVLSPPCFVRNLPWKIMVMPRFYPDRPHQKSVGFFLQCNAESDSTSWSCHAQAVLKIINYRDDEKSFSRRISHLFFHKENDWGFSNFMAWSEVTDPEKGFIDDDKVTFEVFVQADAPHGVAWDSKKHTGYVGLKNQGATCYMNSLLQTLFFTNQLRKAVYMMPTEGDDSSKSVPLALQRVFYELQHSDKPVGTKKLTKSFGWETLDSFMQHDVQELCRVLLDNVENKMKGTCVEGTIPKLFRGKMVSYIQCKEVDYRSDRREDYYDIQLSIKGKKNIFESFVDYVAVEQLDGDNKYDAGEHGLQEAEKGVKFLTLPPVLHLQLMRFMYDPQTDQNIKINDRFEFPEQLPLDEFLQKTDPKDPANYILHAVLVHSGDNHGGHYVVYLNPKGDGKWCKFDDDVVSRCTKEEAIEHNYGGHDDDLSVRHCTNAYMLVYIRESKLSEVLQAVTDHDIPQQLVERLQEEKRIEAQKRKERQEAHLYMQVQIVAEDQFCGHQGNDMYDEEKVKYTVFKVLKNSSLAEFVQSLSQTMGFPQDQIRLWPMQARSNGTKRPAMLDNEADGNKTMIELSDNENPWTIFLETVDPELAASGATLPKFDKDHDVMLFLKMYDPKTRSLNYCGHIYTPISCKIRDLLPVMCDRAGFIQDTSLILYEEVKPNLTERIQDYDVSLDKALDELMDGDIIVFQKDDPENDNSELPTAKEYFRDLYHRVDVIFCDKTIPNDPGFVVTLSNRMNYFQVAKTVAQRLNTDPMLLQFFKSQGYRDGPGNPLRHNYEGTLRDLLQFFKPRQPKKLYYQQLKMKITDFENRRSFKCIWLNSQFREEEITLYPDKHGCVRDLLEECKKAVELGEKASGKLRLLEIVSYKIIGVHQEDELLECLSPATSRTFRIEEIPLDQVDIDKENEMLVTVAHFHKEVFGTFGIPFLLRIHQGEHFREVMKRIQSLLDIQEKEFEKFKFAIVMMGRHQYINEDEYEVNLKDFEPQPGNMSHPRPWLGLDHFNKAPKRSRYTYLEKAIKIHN
# [5] = tested on: RS4-11; test: Antitumor activity against human RS4-11 cells xenografted in NOD/SCID mouse model assessed as tumor growth inhibition at 20 mg/kg, ip daily measured after 18 days relative to control; type: functional; details: RS4-11, 432 h, time 18 day, read-out: TGI
# [6] = tested on: RS4-11; test: Induction of apoptosis in human RS4-11 cells assessed as necrotic cells at 100 nM measured after 72 hrs by FITC-annexin-V/PI analysis (reference value: 0%); type: functional
# [7] = tested on: RS4-11; test: Induction of apoptosis in human RS4-11 cells assessed as necrotic cells at 1000 nM measured after 72 hrs by FITC-annexin-V/PI analysis (reference value: 0%); type: functional
# [8] = target: T1, von Hippel-Lindau disease tumor suppressor/Ubiquitin carboxyl-terminal hydrolase 7; test: PROTACT activity at USP7/VHL in human RS4;11 cells assessed as protein degradation measured after 24 hrs by Western blot analysis; type: cell-based
# Target sequence in this assay (Q93009 whole entry): as the sequence (Q93009 whole entry, looked up) above
# Target sequence in this assay (P40337 whole entry): as the sequence (P40337 whole entry, looked up) above
# [9] = target: T1, von Hippel-Lindau disease tumor suppressor/Ubiquitin carboxyl-terminal hydrolase 7; test: PROTACT activity at USP7/VHL in human RS4;11 cells assessed as protein degradation at 10 nM measured after 6 hrs in presence of (R)-3-(4-(aminomethyl)phenyl)-6-((4-hydroxy-1-(3-phenylbutanoyl)piperidin-4-yl)methyl)-2-methyl-2,6-dihydro-7H-pyrazolo[4,3-d]pyrimidin-7-one by Western blot analysis; type: cell-based
# Target sequence in this assay (P40337 whole entry, looked up): as above
# Target sequence in this assay (Q93009 whole entry, looked up): as the sequence (Q93009 whole entry, looked up) above
# [10] = Toxicity in NOD/SCID mouse xenografted with human RS4-11 cells assessed as body weight change at 5 to 20 mg/kg, ip daily measured after 18 days relative to control; type: organism-based; details: in vivo, 432 h, dose 5-20 mg/kg, time 18 day
# [11] = Toxicity in NOD/SCID mouse xenografted with human RS4-11 cells assessed as signs of toxicity at 5 to 20 mg/kg, ip daily measured after 18 days relative to control; type: organism-based; details: in vivo, 432 h, dose 5-20 mg/kg, time 18 day
# [12] = tested on: RS4-11; test: Induction of cell cycle arrest in human RS4-11 cells assessed as assessed as accumulation cells at G1/G0 phase measured after 12 hrs by flow cytometry; type: functional, cell-based; details: dose 1-1000 nM
# [13] = tested on: RS4-11; test: Induction of cell cycle arrest in human RS4-11 cells assessed as assessed as total apoptotic cells at 1 nM measured after 12 hrs by flow cytometry relative to control; type: functional
# [14] = target: T1, von Hippel-Lindau disease tumor suppressor/Ubiquitin carboxyl-terminal hydrolase 7; test: PROTACT activity at USP7/VHL in human RS4;11 cells assessed as protein degradation at 10 nM measured after 2 to 4 hrs by Western blot analysis; type: cell-based; details: time 2-4 hrs
# Target sequence in this assay (P40337 whole entry, looked up): as the sequence (P40337 whole entry, looked up) above
# Target sequence in this assay (Q93009 whole entry, looked up): as the sequence (Q93009 whole entry, looked up) above
# [15] = tested on: RS4-11; test: Induction of apoptosis in human RS4-11 cells assessed as late apoptotic cells at 100 nM measured after 72 hrs by FITC-annexin-V/PI analysis (reference value: 3.23%); type: functional
# [16] = target: T1, von Hippel-Lindau disease tumor suppressor/Ubiquitin carboxyl-terminal hydrolase 7; test: PROTACT activity at USP7/VHL in human RS4;11 cells assessed as protein degradation at 10 nM measured after 6 hrs in presence of proteasome inhibitors PS-171 by Western blot analysis; type: cell-based
# Target sequence in this assay (P40337 whole entry, looked up): as the sequence (P40337 whole entry, looked up) above
# Target sequence in this assay (Q93009 whole entry, looked up): as the sequence (Q93009 whole entry, looked up) above
# [17] = target: T1, von Hippel-Lindau disease tumor suppressor/Ubiquitin carboxyl-terminal hydrolase 7; test: PROTACT activity at USP7/VHL in human RS4;11 cells assessed as protein degradation at 100 nM measured after 24 hrs by Western blot analysis relative to control; type: cell-based
# Target sequence in this assay (P40337 whole entry, looked up): as the sequence (P40337 whole entry, looked up) above
# Target sequence in this assay (Q93009 whole entry, looked up): as the sequence (Q93009 whole entry, looked up) above
# [18] = tested on: REH; test: Antiproliferative activity against human REH cells with wild type p53 assessed as cell viability measured after 3 days by PMS-MTS assay; type: functional, cell-based; details: 72 h
# [19] = tested on: RS4-11; test: Induction of apoptosis in human RS4-11 cells assessed as viable cells at 100 nM measured after 72 hrs by FITC-annexin-V/PI analysis (reference value: 91.41%); type: functional; details: read-out: Activity
# [20] = tested on: RS4-11; test: Induction of apoptosis in human RS4-11 cells assessed as early apoptotic cells at 1000 nM measured after 72 hrs by FITC-annexin-V/PI analysis (reference value: 5.36%); type: functional
# [21] = target: T1, von Hippel-Lindau disease tumor suppressor/Ubiquitin carboxyl-terminal hydrolase 7; test: PROTACT activity at USP7/VHL in human RS4;11 cells assessed as maximal protein degradation measured after 24 hrs by Western blot analysis relative to control; type: cell-based
# Target sequence in this assay (P40337 whole entry, looked up): as the sequence (P40337 whole entry, looked up) above
# Target sequence in this assay (Q93009 whole entry, looked up): as the sequence (Q93009 whole entry, looked up) above
# [22] = tested on: RS4-11; test: Induction of apoptosis in human RS4-11 cells assessed as necrotic cells at 10 nM measured after 72 hrs by FITC-annexin-V/PI analysis (reference value: 0%); type: functional
# [23] = tested on: RS4-11; test: Antitumor activity against human RS4-11 cells xenografted in NOD/SCID mouse model assessed as tumor growth inhibition at 5 mg/kg, ip daily measured after 18 days relative to control; type: functional; details: RS4-11, 432 h, time 18 day, read-out: TGI
# [24] = tested on: RS4-11; test: Induction of apoptosis in human RS4-11 cells assessed as late apoptotic cells at 1 nM measured after 72 hrs by FITC-annexin-V/PI analysis (reference value: 3.23%); type: functional
# [25] = target: T1, von Hippel-Lindau disease tumor suppressor/Ubiquitin carboxyl-terminal hydrolase 7; test: PROTACT activity at USP7/VHL in human RS4;11 cells assessed as protein degradation at 10 nM measured after 6 hrs in presence of VHL-binder by Western blot analysis; type: cell-based
# [26] = tested on: RS4-11; test: Induction of apoptosis in human RS4-11 cells assessed as viable cells at 1000 nM measured after 72 hrs by FITC-annexin-V/PI analysis (reference value: 91.41%); type: functional; details: read-out: Activity
# [27] = tested on: RS4-11; test: Antitumor activity against human RS4-11 cells xenografted in NOD/SCID mouse model assessed as decrease in USP7 level in tumor at 5 to 20 mg/kg, ip daily measured after 18 days relative to control; type: functional, organism-based; details: dose 5-20 mg/kg, time 18.0 day
# [28] = tested on: RS4-11; test: Induction of apoptosis in human RS4-11 cells assessed as viable cells at 1 nM measured after 72 hrs by FITC-annexin-V/PI analysis (reference value: 91.41%); type: functional; details: read-out: Activity
# [29] = target: T1, von Hippel-Lindau disease tumor suppressor/Ubiquitin carboxyl-terminal hydrolase 7; test: PROTACT activity at USP7/VHL in human RS4;11 cells assessed as protein degradation at 10 nM measured after 24 hrs by Western blot analysis relative to control; type: cell-based
# [30] = target: T1, von Hippel-Lindau disease tumor suppressor/Ubiquitin carboxyl-terminal hydrolase 7; test: PROTACT activity at USP7/VHL in human RS4;11 cells assessed as selective USP7 degradation at 100 nM measured after 4 hrs by proteomics analysis; type: cell-based
# [31] = target: T1, von Hippel-Lindau disease tumor suppressor/Ubiquitin carboxyl-terminal hydrolase 7; test: PROTACT activity at USP7/VHL in human RS4;11 cells assessed as protein degradation at 10 nM measured after 6 hrs in presence of NEDD8-activating enzyme inhibitor […] by Western blot analysis; type: cell-based
# [32] = tested on: RS4-11; test: Induction of apoptosis in human RS4-11 cells assessed as early apoptotic cells at 100 nM measured after 72 hrs by FITC-annexin-V/PI analysis (reference value: 5.36%); type: functional
# [33] = tested on: RS4-11; test: Induction of apoptosis in human RS4-11 cells assessed as viable cells at 10 nM measured after 72 hrs by FITC-annexin-V/PI analysis (reference value: 91.41%); type: functional; details: read-out: Activity
compound,measurement,setting,value
Cc1ncsc1-c1ccc([C@H](C)NC(=O)[C@@H]2C[C@@H](O)CN2C(=O)[C@@H](c2cc(N3CCN(Cc4ccc(-c5c6ncn(CC7(O)CCN(C(=O)C[C@@H](C)c8ccccc8)CC7)c(=O)c6nn5C)cc4)CC3)no2)C(C)C)cc1,Activity,[1],17.36%
same,Activity,[2],12.45%
same,Activity,[3],16.98%
same,Activity,[4],Active
same,inhibition in vivo at 20 mg/kg,[5],78.7%
same,Activity,[6],0.01%
same,Activity,[7],0%
same,DC50,[8],0.74 nM
same,Activity,[9],inactive
same,Activity,[10],Non-Toxic
same,Activity,[11],Non-Toxic
same,Activity,[12],Dose-Dependent Effect
same,Activity,[13],12.98%
same,Activity,[14],Active
same,Activity,[15],20.73%
same,Activity,[16],inactive
same,Activity,[17],91.7%
same,pIC50,[18],8.08
same,viability at 0.1 µM,[19],59.7%
same,Activity,[20],19.81%
same,Emax,[21],93.1%
same,Activity,[22],0.01%
same,inhibition in vivo at 5 mg/kg,[23],64.7%
same,Activity,[24],12.98%
same,Activity,[25],inactive
same,viability at 1 µM,[26],55.3%
same,Activity,[27],Active
same,viability at 0.001 µM,[28],74.6%
same,Activity,[29],91.6%
same,Activity,[30],Active
same,Activity,[31],inactive
same,Activity,[32],19.6%
same,viability at 0.01 µM,[33],65.7%

# — ChEMBL document CHEMBL5550201, “Discovery of a Highly Potent, Selective and Efficacious USP7 Degrader for the Treatment of Acute Lymphoblastic Leukemia” (J Med Chem, 2024)
